Measurements: patent US20240391877A1, “COMPOUND AS INHIBITOR OF COMPLEMENT FACTOR D, AND PHARMACEUTICAL COMPOSITION AND USE THEREOF” (WUHAN CREATERNA SCIENCE AND TECHNOLOGY CO.,LTD., priority 2021, published 2024)

How the values were obtained:
[1] = tested on: hemolysis of rabbit erythrocytes; assay: Rabbit erythrocyte hemolysis assay to evaluate inhibitory activity on the bypass pathway; type: cell-based; conditions: Oryctolagus cuniculus, 0.5 h, 48% NHP or 26.4% NHS, 37° C. 30 min, absorbance 415 nm
Excerpt: 2. Rabbit Erythrocyte Hemolysis Assay to Evaluate the Inhibitory Activity of Compounds on the Bypass Pathway
Normal Human Serum, NHS (collected from healthy people), Normal Human Plasma, NHP (Shanghai Yuduo), 96-well ELISA plate (Jet Biofil), Japanese big-eared white rabbit (Wuhan WQJX), Alsever's solution (Procell), centrifuge (Thermo, PICO17), thermostatic shaker (Shanghai Fuma), destaining shaker (Beijing Liuyi), cell counter (Invitrogen, Counter Countess II) (GVB^o, EGTA, MgCl2, NaOH, microplate reader, microplate thermostatic shaker, and pipette are equivalent to those in the experiment 1).
48% NHP: 100% NHP was diluted to 48% with buffer;
26.4% NPS: 100% NHS was diluted to 26.4% with buffer;
rabbit erythrocyte suspension: blood was taken from rabbit ear marginal vein, anticoagulated with Alsever's solution at a ratio of 1:1, stored in portions at 4° C., and could be stored for 4 weeks. Before use, the suspension was centrifuged at 500 g for 5 min to discard the Alsever's solution, washed three times with an equal volume of buffer and centrifuged at 500 g for 5 min, and finally the density was adjusted to 6×10^8 cells/mL with buffer.
In the 96-well ELISA plate, the experimental group was added with 50 μL of 48% NHP or 26.4% NHS and 50 μL of compound solution; the positive control group was added with 50 μL of 48% NHP or 26.4% NHS and 50 μL of buffer containing 0.2% DMSO; the blank control group was added with 50 μL of 48% inactivated NHP or 26.4% inactivated NHS and 0.2% DMSO buffer; the H2O group was added with 100 μL of double-distilled water; incubated at 37° C. for 15 min; 20 μL of rabbit erythrocyte suspension was added to each well and incubated on a shaker at 37° C. for 30 min; centrifuged at 2000 g (3380 rpm) for 5 min, and […] of supernatant was transferred to a new 96-well ELISA plate, and the absorbance was detected at 415 nm.
The PC group represents 100% hemolysis, and the NC group represents 0% hemolysis.
IC50: half-maximal inhibitory concentration. Data were collected to calculate the log value of hemolysis percentage versus compound concentration, and IC50 values were calculated using GraphPad Prism software.

complement factor D = target: T1, complement factor D (Homo sapiens, UniProt P00746); assay: Complement factor D inhibitory activity (C3b method) in vitro screening; product Bb detected by ELISA; type: biochemical; conditions: factor D + factor B + factor C3b, 37° C., Bb by MicroVue Bb Plus ELISA
T1 construct: purchased Complement tech
Excerpt: 1. Complement Factor D Inhibitory Activity (C3b Method) In Vitro Screening Experiment
V-bottom plate (AXYGEN), DMSO (Sigma), MicroVue Bb Plus ELISA kit (Quidel), complement factor C3b (abbreviated as factor C3b, Complement tech), complement factor B (abbreviated as factor B, Complement tech), complement factor D (abbreviated as factor D, Complement tech), EDTA (MACKLIN), GVB^o (Complement tech), EGTA (Aladdin), MgCl2 (Aladdin), NaOH (Sinopharm), microplate reader (Molecular Devices, SpectraMax i3x), microplate thermostatic shaker (Thermo, MB100-2A), pipette (Gilson)
0.1 M Mg-EGTA: 3.8 g of EGTA, 0.9521 g of MgCl2, and 0.7 g of NaOH were weighed, and the pH was adjusted to 7.5 with NaOH. Distilled water was added to make up to 100 mL, and the mixture was filtered with a […] sterile needle filter, stored in portions at 4° C.
Buffer: 0.1 M Mg-EGTA solution was diluted 10-fold to 10 mM with GVB^o buffer; • factor B working solution: 1 mg/mL factor B solution (10.75 μM) was diluted 6.7-fold to 1.6 μM with buffer; • factor C3b working solution: 1 mg/mL factor C3b solution (5.68 μM) was diluted 5-fold to […] with buffer; • factor D working solution: 0.1 mg/mL factor D solution (4.17 μM) was diluted 1303-fold to 3.2 nM with buffer.
Note: a. The above dilution multiples are for reference only and are adjusted according to the true concentration labeled on the reagent; • b. factor B: 93 KDa, factor D: 24 KDa, factor C3b: 176 KDa.
Stop solution: An appropriate amount of EDTA powder was weighed, dissolved in a certain amount of GVB^o buffer, and the pH was adjusted to 7.5 with NaOH. The mixture was stirred until clear and prepared into a 10 mM solution.
Compound stock solution: 40 mM compound solution was diluted with DMSO into 1 mM stock solution, and the 1 mM stock solution was diluted 3-fold with DMSO at 8 points to prepare compound stock solutions of various concentrations.
Compound working solution: diluted 250-fold with buffer to obtain compound solutions of various concentrations.
In the V-bottom plate, the experimental group was added with 10 μL of factor D solution and 10 μL of compound solution; the positive control group was added with 10 μL of factor D solution and buffer containing 0.4% DMSO; the blank control group was added with […] containing 0.2% DMSO; incubated at 37° C. for 15 min; the factor B working solution and the factor C3b working solution were mixed homogeneously at a ratio of 1:1; 20 µL of the mixture was added to each well and incubated at 37° C. for 30 min; the reaction was stopped by adding 40 μL of stop solution; the production of product Bb was detected by MicroVue Bb Plus ELISA kit.
1.4.1 The required wells of the ELISA plate were taken out and allowed to return to room temperature, and the remaining ones were repackaged and stored at 4° C.;
1.4.2 the wells were washed twice with 300 μL of 1× wash buffer, and incubated for 1 min at 25° C. for the first wash;
1.4.3 samples were diluted 8-fold with complement specimen diluent, and 100 μL of sample was added to each well and incubated at 25° C. for 30 min;
1.4.4 the liquid in the wells was discarded, and the wells were washed 5 times with 300 μL of 1× wash buffer, and incubated at room temperature for 1 min for the first wash;
1.4.5 50 μL of Bb Plus Conjugate was added to each well and incubated at 25° C. for 30 min;
1.4.6 the liquid in the wells was discarded, and the wells were washed 5 times with 300 μL of 1× wash buffer, and incubated at room temperature for 1 min for the first wash;
1.4.7 100 μL of […] (Substrate Solution) was added to each well and incubated at 25° C. for 15 min;
1.4.8 100 μL of stop solution was added to each well, and the absorbance was detected at 450 nm within 30 min.
1.5.1 Inhibition rate of each drug concentration:
The PC group represents 0% inhibition rate, and the NC group represents 100% inhibition rate. […]

[2] = In vivo pharmacokinetic study (PK assay on SD rats); conditions: Sprague-Dawley, rat, plasma; for AUC(0-t) / Cmax / half-life: 1 mg/kg
Method: 3. In Vivo Pharmacokinetic Study of the Compounds of the Present Disclosure
After adaptive domestication, SPF grade SD rats were administered 1 or 3 mg/kg the compounds of the present disclosure by single gavage and tail vein injection, respectively. Plasma was collected at specific time points after administration, and the concentration of compounds in plasma was detected by LC-MS/MS (AB SCIEX Qtrap4500). The PK parameters of each compound were calculated using software to reflect the pharmacokinetic properties of the compounds of the present disclosure in vivo in animals.

T1 sequence (P00746 26-253): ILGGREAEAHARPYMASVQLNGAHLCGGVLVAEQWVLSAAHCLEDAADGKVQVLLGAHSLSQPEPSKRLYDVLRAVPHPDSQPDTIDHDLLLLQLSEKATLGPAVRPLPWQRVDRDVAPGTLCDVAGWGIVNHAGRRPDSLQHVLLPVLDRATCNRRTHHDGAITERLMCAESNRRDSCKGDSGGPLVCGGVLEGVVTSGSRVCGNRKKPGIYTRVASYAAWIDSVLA

| Structure (SMILES) | IC50 [1] [nM] | further results |
| --- | --- | --- |
| CC(N)c1cccc(-c2cc(COc3ccccc3CC(=O)O)cc(N3CCC4(CCCOC4)CC3)c2)c1F (centres unmarked) [Compound 056, 2-(2-((3′-(1-aminoethyl)-2′-fluoro-5-(2-oxa-9-azaspiro[5.5]undecan-9-yl)-[1,1′-biphenyl]-3-yl)methoxy)phenyl)acetic acid] | 70 | – |
| NCc1cccc(-c2cc(COc3ccccc3CC(=O)O)cc(N3CC4(CCCC4)C3)c2)c1 [Compound 017, 2-(2-((3′-(aminomethyl)-5-(2-azaspiro[3.4]octan-2-yl)-[1,1′-biphenyl]-3-yl)methoxy)phenyl)acetic acid] | 65 | IC50 (complement factor D): 6 nM |
| NCc1cccc(-c2cc(COc3ccccc3CC(=O)O)cc(N3CC4CCC(C4)C3)c2)c1 [Compound 006, 2-(2-((3′-(aminomethyl)-5-(3-azabicyclo[3.2.1]octan-3-yl)-′[1,1′-biphenyl]-3-yl)methoxy)phenyl)acetic acid] | 54 | IC50 (complement factor D): 4 nM |
| CC(N)c1cccc(-c2cc(COc3ccccc3CC(=O)O)cc(N3CCC4(CCOCC4)CC3)c2)c1F (centres unmarked) [Compound 055, 2-(2-((3′-(1-aminoethyl)-2′-fluoro-5-(3-oxa-9-azaspiro[5.5]undecan-9-yl)-[1,1′-biphenyl]-3-yl)methoxy)phenyl)acetic acid] | 117 | – |
| NCc1cccc(-c2cc(COc3ccccc3CC(=O)O)c(F)c(N3CCC4(CC3)COC4)c2)c1 [Compound 026, 2-(2-((3′-(aminomethyl)-4-fluoro-5-(2-oxa-7-azaspiro[3.5]nonan-7-yl)-[1,1′-biphenyl]-3-yl)methoxy)phenyl)acetic acid] | 16 | – |
| CC(N)c1cccc(-c2cc(COc3ccccc3CC(=O)O)cc(N3CCC4(CCCOC4)CC3)c2)c1 (centres unmarked) [Compound 039] | 127 | – |
| CC(N)c1cccc(-c2cc(COc3ccccc3CC(=O)O)cc(N3CCC4(CC3)COC4)c2)c1 (centres unmarked) [Compound 042] | 50 | – |
| NCc1cccc(-c2cc(COc3ccccc3CC(=O)O)cc(N3CCC4(CCC4)CC3)c2)c1 [Compound 002, 2-(2-((3′-(aminomethyl)-5-(7-azaspiro[3.5]nonan-7-yl)-[1,1′-biphenyl]-3-yl)methoxy)phenyl)acetic acid] | 98 | – |
| CC(N)c1cccc(-c2cc(COc3ccccc3CC(=O)O)cc(N3CCOC4(CC4)C3)c2)c1 (centres unmarked) [Compound 035] | 183 | – |
| CC(N)c1cccc(-c2cc(COc3ccccc3CC(=O)O)cc(N3CCC4(CCOC4)CC3)c2)c1 (centres unmarked) [Compound 036] | 44 | – |
| CC(N)c1cccc(-c2cc(COc3ccccc3CC(=O)O)cc(N3CCC4(CCO4)CC3)c2)c1 (centres unmarked) [Compound 043] | 93 | – |
| NCc1cccc(-c2cc(COc3c(F)cccc3CC(=O)O)cc(N3CCC4(CC3)COC4)c2)c1 [Compound 028, 2-(2-((3′-(aminomethyl)-5-(2-oxa-7-azaspiro[3.5]nonan-7-yl)-[1,1′-biphenyl]-3-yl)methoxy)-3-fluorophenyl)acetic acid] | 58 | – |
| NCc1cccc(-c2cc(COc3ccccc3CC(=O)O)cc(N3CCC4(COC4)C3)c2)c1 [Compound 015, 2-(2-((3′-(aminomethyl)-5-(2-oxa-6-azaspiro[3.4]octan-6-yl)-[1,1′-biphenyl]-3-yl)methoxy)phenyl)acetic acid] | 7 | – |
| NC(CF)c1cccc(-c2cc(COc3ccccc3CC(=O)O)cc(N3CCC4(CC3)COC4)c2)c1 (centres unmarked) [Compound 044, 2-(2-((3′-(1-amino-2-fluoroethyl)-5-(2-oxa-7-azaspiro[3.5]nonan-7-yl)-[1,1′-biphenyl]-3-yl)methoxy)phenyl)acetic acid] | 133 | – |
| NCc1cccc(-c2cc(COc3ccc(F)cc3CC(=O)O)cc(N3CCC4(CC3)CC4)c2)c1 [Compound 010, 2-(2-((3′-(aminomethyl)-5-(6-azaspiro[2.5]octan-6-yl)-[1,1′-biphenyl]-3-yl)methoxy)-5-fluorophenyl)acetic acid] | 159 | AUC(0-t) ([2]; IV): 5660 ng·h/mL; Cmax ([2]; IV): 1840 ng/mL; half-life ([2]; IV): 3.31 h; bioavailability ([2]; PO 1 mg/kg vs IV 1 mg/kg, read-out: Oral bioavailability F): 30.9%; AUC(0-t) ([2]; PO (3% DMSO + 4% Tween)): 1750 ng·h/mL; Cmax ([2]; PO (3% DMSO + 4% Tween)): 349 ng/mL; half-life ([2]; PO (3% DMSO + 4% Tween)): 3.18 h |
| NCc1cccc(-c2cc(COc3ccccc3CC(=O)O)cc(N3CC4(CCCCC4)C3)c2)c1 [Compound 005, 2-(2-((3′-(aminomethyl)-5-(2-azaspiro[3.5]nonan-2-yl)-[1,1′-biphenyl]-3-yl)methoxy)phenyl)acetic acid] | 73 | – |
| CC(N)c1cccc(-c2cc(COc3ccccc3CC(=O)O)cc(N3CCC4(CCOCC4)CC3)c2)c1 (centres unmarked) [Compound 038] | 206 | – |
| CC(N)c1cccc(-c2cc(COc3ccccc3CC(=O)O)cc(N3CCC4(CCO4)C3)c2)c1 (centres unmarked) [Compound 041, 2-(2-((3′-(1-aminoethyl)-5-(1-oxa-6-azaspiro[3.4]octan-6-yl)-[1,1′-biphenyl]-3-yl)methoxy)phenyl)acetic acid] | 151 | – |
| CC(N)c1cccc(-c2cc(COc3ccccc3CC(=O)O)cc(N3CC4(CCOC4)C3)c2)c1 (centres unmarked) [Compound 040] | 138 | – |
| NCc1cccc(-c2cc(COc3cc(F)ccc3CC(=O)O)cc(N3CCC4(CC3)CC4)c2)c1 [Compound 009, 2-(2-((3′-(aminomethyl)-5-(6-azaspiro[2.5]octan-6-yl)-[1,1′-biphenyl]-3-yl)methoxy)-4-fluorophenyl)acetic acid] | 218 | – |
